From publication PMC6475490 (Psychopharmacology, 2018)
“Also recorded” adds a separate entry of the source.

Columns and labels:
SERT = SERT (Rattus norvegicus, UniProt P31652); assay: SERT-mediated [3H]5-HT release assay in rat brain synaptosomes; format: biochemical; details: relative to methcathinone 1
DAT, SERT, and NET = format: biochemical, rat; details: from DAT, SERT EC50 and NET screening data
rats [1] = details: ref Gatch et al. 2015; cited from earlier work
DAT = DAT (Rattus norvegicus, UniProt P23977); assay: DAT-mediated [3H]DA release assay in rat brain synaptosomes; format: biochemical
NET = NET (Rattus norvegicus, UniProt Q63380); assay: NET-mediated [3H]MPP+ release screen in rat brain synaptosomes; format: biochemical; details: based on % release at 10 µM screening data
transporters = details: CF3 analogs; ref Cozzi et al. 2013; cited from earlier work
rats [2] = details: ref Glennon et al. 1987; cited from earlier work
baboons = details: ref Kaminski and Griffiths 1994; cited from earlier work

SERT, sequence (P31652 whole entry): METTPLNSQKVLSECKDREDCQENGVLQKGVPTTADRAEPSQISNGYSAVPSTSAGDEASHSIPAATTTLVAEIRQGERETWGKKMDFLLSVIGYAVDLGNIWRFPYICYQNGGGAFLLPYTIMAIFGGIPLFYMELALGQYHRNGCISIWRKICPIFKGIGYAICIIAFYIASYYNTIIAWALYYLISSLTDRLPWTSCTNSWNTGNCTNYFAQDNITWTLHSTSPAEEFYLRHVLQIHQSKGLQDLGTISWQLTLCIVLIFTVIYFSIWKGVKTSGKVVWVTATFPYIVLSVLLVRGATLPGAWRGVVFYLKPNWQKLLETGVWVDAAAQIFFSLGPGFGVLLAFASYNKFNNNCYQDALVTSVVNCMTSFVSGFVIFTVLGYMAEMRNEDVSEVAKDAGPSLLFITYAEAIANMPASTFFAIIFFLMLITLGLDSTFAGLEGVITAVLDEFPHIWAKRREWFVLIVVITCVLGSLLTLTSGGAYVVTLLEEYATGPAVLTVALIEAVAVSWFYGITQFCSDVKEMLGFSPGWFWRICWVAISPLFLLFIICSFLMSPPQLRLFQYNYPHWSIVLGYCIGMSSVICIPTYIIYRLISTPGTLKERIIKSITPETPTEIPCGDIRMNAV
DAT, sequence (P23977 whole entry): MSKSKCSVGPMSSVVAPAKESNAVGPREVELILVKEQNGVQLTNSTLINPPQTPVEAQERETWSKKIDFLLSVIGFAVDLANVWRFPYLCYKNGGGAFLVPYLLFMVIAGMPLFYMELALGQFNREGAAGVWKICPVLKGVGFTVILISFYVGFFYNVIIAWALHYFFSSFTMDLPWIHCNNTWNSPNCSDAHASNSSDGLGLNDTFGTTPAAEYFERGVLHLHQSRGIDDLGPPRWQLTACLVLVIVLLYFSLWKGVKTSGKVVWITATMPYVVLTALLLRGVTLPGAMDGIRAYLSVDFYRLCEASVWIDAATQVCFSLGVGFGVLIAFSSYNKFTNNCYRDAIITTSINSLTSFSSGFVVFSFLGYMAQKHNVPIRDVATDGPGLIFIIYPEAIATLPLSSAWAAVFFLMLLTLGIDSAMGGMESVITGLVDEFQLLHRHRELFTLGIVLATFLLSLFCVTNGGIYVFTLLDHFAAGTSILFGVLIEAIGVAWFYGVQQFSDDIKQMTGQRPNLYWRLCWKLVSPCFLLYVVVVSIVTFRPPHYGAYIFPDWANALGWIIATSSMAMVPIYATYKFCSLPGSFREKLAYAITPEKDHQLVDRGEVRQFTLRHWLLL
NET, sequence (Q63380 1-617): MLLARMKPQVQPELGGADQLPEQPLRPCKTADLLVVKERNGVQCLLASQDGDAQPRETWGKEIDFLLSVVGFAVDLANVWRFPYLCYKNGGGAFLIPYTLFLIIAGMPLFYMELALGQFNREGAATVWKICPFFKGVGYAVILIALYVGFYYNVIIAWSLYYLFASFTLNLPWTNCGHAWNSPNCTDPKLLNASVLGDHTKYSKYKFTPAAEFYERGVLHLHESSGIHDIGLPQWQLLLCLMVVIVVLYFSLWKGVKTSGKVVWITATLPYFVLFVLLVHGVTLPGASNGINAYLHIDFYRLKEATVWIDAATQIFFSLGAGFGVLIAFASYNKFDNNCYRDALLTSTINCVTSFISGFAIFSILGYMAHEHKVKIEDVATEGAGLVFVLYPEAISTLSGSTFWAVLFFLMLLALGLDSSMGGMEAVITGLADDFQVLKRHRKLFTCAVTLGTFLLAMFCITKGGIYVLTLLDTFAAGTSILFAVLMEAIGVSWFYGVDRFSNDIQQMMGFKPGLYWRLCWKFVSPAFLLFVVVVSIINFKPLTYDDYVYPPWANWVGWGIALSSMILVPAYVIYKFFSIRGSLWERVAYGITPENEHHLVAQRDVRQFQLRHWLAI

Structure (SMILES) | fold more potent at 5-HT release (SERT) compared to 1 (SERT) [fold] | transporter selectivity profile in words (DAT, SERT, and NET) | fold less potent at DA release (DAT) compared to 1 (DAT; relative to methcathinone 1) [fold] | other results
CNC(C)C(=O)c1ccc(Br)cc1 (centres unmarked) [Compound 19] | 100 | – | – | –
CNC(C)C(=O)c1cccc(F)c1 (centres unmarked) [Compound 13, 3-fluoromethcathinone] | 2.9 | highly potent, DAT selective compound | – | locomotor stimulation (rats [1]): induce locomotor stimulation
CNC(C)C(=O)c1cccc2ccccc12 (centres unmarked) [Compound 26, 1-naphthylmethcathinone] | 198 | – | – | –
CNC(C)C(=O)c1ccccc1C (centres unmarked) [Compound 10] | 12 | DAT selective | 2 | –
CNC(C)C(=O)c1ccccc1C(F)(F)F (centres unmarked) [Compound 8] | – | selective NET releaser; also recorded: selective NE releasers | – | NET / NE release activity in words (NET): appears active as a NE releaser
Cl.NCC(=O)c1ccccc1 [Compound 6, phenacylamine, reference compound] | – | DAT selective | 4.2 | –
CNC(C)C(=O)c1cccc(C(F)(F)F)c1 (centres unmarked) [Compound 14] | 14 | SERT/NET selective releasers; also recorded: selective 5-HT releasers | 26 | –
CNC(C)C(=O)c1ccccc1F (centres unmarked) [Compound 7] | – | DAT selective | – | –
CNC(C)C(=O)c1ccc(C(F)(F)F)cc1 (centres unmarked) [Compound 22] | 15 | most serotonergic; also recorded: low DAT selectivity | – | relative selectivity (DAT selectivity) (transporters): < 0.04; EC50 (DAT; read-out: DA release EC50, bound stated): > 4 µM
CNC(C)C(=O)c1ccc(F)cc1 (centres unmarked) [Compound 21] | 2.9 | – | 2.4 | –
CNC(C)C(=O)c1ccc(C)c(Cl)c1 (centres unmarked) [Compound 31] | 102 | – | 2.5 | –
CNC(C)C(=O)c1cccc(C)c1 (centres unmarked) [Compound 16] | 14.6 | – | – | –
CNC(C)C(=O)c1ccccc1OC(F)(F)F (centres unmarked) [Compound 9] | – | – | – | NET / NE release activity in words (NET): weak
CNC(C)C(=O)c1c[nH]c2ccccc12 (centres unmarked) [Compound 28, 3-indoylmethcathinone] | 103 | – | ~2 | NET / NE release activity in words (NET): much weaker than its DAT release potency
CNC(C)C(=O)c1ccccc1 (centres unmarked) [Compound 1, methcathinone] | – | DAT selective | – | substitution for amphetamine in drug discrimination (rats [2]): substitute for amphetamine; self-administration (baboons): dose-dependently maintain self-administration
CNC(C)C(=O)c1cccc(Br)c1 (centres unmarked) [Compound 11] | 31 | – | – | fold more potent at DA release (DAT) compared to 1 (DAT; relative to methcathinone 1): ~2 fold
CNC(C)C(=O)c1ccc(C)cc1 (centres unmarked) [Compound 24, mephedrone, reference compound] | 36 | – | – | –
